Patent US9375436B2, “Androgen treatment in females” (priority 2004, dated 2016)

Key:
Assay type in all cases: in vivo, human
[1] = test system: embryos of women undergoing IVF; test: Pre-implantation genetic diagnosis, euploidy rate by length of DHEA usage (Example 3)
Description: In another study (data not shown), patients were analyzed after four weeks of DHEA treatment. Seven patients had embryos tested by pre-implantation genetic diagnosis (PGD). In three women who had PGD after less than four weeks of DHEA usage and a mean age 41.5±5.1 at the time of starting IVF cycles, the euploidy, or normal chromosome number, rate was 2/30 embryos (6.6%). […] There is a mean age difference between patients who underwent IVF after less than four weeks of DHEA usage (mean age 41.5±5.1) and patients who underwent IVF after at least four weeks of DHEA usage (mean age 43.7±1.3).

[2] = test system: women with diminished ovarian reserve (DOR); test: IVF cycle and PGD outcomes in DHEA-treated women with DOR (Example 4)
Excerpt: All the IVF cycles performed at the Center for Human Reproduction (CHR) in New York, N.Y., between 2004 and 2006 for cycles performed in women with a diagnosis of DOR were retroactively reviewed. The study population, involving 27 IVF cycles, was selected amongst those cycles which, in addition, had undergone preimplantation genetic diagnosis (PGD).
The diagnosis of DOR was made based on previously reported abnormally high, age stratified baseline FSH levels. In practical terms, this meant that a diagnosis of DOR was reached if baseline FSH levels exceeded the 95% confidence interval of age appropriate levels, independent of prior IVF retrievals and/or oocyte numbers. At, or above age 43, all patients were considered to suffer from DOR, independent of baseline FSH level.
If under age 40, DHEA was given for up to four months prior to IVF. Women of older age received DHEA, if possible, for at least two months.
For the purpose of this analysis, a patient had to be for at least one month (30 days) on DHEA supplementation in order for the IVF cycle to be considered amongst DHEA-treated cycles. All other DOR patients were considered to have received no DHEA treatment. Following this definition, 19 DOR patients had received no DHEA supplementation, and eight had.
All women with DOR, independent of DHEA supplementation, were stimulated with identical protocols, as previously reported in detail elsewhere. In short, they, without exception, received a microdose agonist protocol with maximal goandotropin stimulation of 600 IU to 750 IU daily, with preponderance of FSH, and a smaller daily amount of human menopausal gonadotropin (hMG).
PGD was performed in routine fashion, as also previously described in detail, and involved the analysis of chromosomes X, Y, 13, 16, 18, 21 and 22 by fluorescence in situ hybridization (FISH) on day three after fertilization. Embryo transfer occurred on day five after fertilization.
Patients were represented by only one cycle outcome in each group. If patients had undergone more than one cycle, either with, or without, DHEA supplementation, only their latest cycle was included in the analysis. Three patients underwent both a pre-DHEA and a post-DHEA cycle and in those cases both cycles were included in the analysis.
Statistical analysis was performed using SPSS for windows, standard version 10.0.7. Data are presented as mean±one standard deviation, unless otherwise noted, and statistical differences between the two study groups were tested by Chi-square and (two-sided) Fisher's Exact Test, where applicable, with significance being defined as p<0.05.

[3] = Case report: DHEA substitution in probable 17,20-desmolase deficiency (Patient B, Example 5); details: human, in vivo, oral, normal (130-980), read-out: DHEA level
Description: In a further study, a case of probable 17, 20-desmolase deficiency, resulting in abnormally low estradiol, DHEA, androstenedione and testosterone levels, is presented in a person with a clinical history of, initially, unexplained infertility and, later, prematurely aging ovaries.
In July of 2003, the patient was started on 25 mg daily of micronized DHEA. After five weeks of treatment, DHEA, DHEA-S and androstenedione levels had normalized into mid-ranges. (Even though androstenedione is partially produced through the activity of 17,20-desmolase from 17-hydroxyprogesterone, part is also derived from DHEA through the activity of 3-beta hydroxysteroid dehydrogenase [Speroff et al., 1999a]. The normalization of androstenedione, after DHEA administration, therefore, also speaks for an underlying 17,20-desmolase defect, and not a 3-beta hydroxysteroid dehydrogenase deficiency.) In the third and fourth month, following the start of DHEA supplementation, the patient ovulated spontaneously with estradiol levels of 268 and 223 pg/ml (Table 2), respectively, measured on the day of LH surge.
On Jan. 28, 2004, and after DHEA therapy of approximately six months, a fourth IVF cycle was initiated. Their baseline FSH level in that cycle was 9.6 mIU/ml, estradiol 56 pg/ml. Stimulation took place with 300 IU of recombinant FSH (without hMG) and with an agonist flare protocol. […] A triplet pregnancy was established with heart beats. Two, out of the three fetuses lost heart beat spontaneously, and the patient delivered by cesarean section, at term, a healthy singleton infant.

[4] = test system: women with diminished ovarian reserve; test: Gender of offspring and embryos conceived on DHEA treatment (Example 6)
Description: The treatment protocol for long-term supplementation with DHEA that may improve oocyte and embryo quantity, quality, pregnancy rates and time to conception in women with diminished ovarian reserve, involves 25 mg of micronized, pharmaceutical grade DHEA, TID will usually uniformly raise levels of unconjugated DHEA above about 350 ng/dl, and, therefore, raise baseline testosterone. Estradiol baseline levels may also be raised.
A total of 19 pregnancies were recorded with 16 singleton and 3 twin pregnancies. The medical records of all 19 women were reviewed in order to determine whether they conceived spontaneously, defined as including pregnancies conceived with intrauterine inseminations, or by IVF. If conception had occurred by IVF, it was recorded whether fertilization was spontaneous or by intracytoplasmic sperm injection (ICSI).
As a control group, seven women were selected who had undergone one IVF cycle with preimplantation genetic diagnosis (PGD), while for at least 60 days on DHEA supplementation, but had not conceived. The PGD data, defining each embryo's gender, were recorded. Statistics were performed using a binomial runs test, comparing seen distributions with an expected distribution of 50 percent, with p≦0.05 defining significance.

[5] = 3 women with DHEA and no-DHEA cycles, DHEA-treated cycle
[6] = DHEA-treated cycles n = 8, PGD by FISH
[7] = DHEA-treated cycles, at least one euploid embryo for transfer
[8] = 15 offspring of pregnancies achieved through IVF
[9] = 53 embryos from 17 IVF cycles, women on DHEA, all ICSI
[10] = sixteen singleton pregnancies conceived on DHEA for at least 60 days

C[C@]12CC[C@H](O)CC1=CC[C@@H]1[C@@H]2CC[C@]2(C)C(=O)CC[C@@H]12 [DHEA, Dehydroepiandrosterone]
euploidy rate ([1]; PGD after less than four weeks of DHEA usage, three women, 2/30 embryos): 6.6%
euploidy rate ([1]; PGD after more than four weeks of DHEA usage, six patients, 8/27 embryos): 29.6%
Aneuploid Embryos [2, 5]: 2.0 ± 1.8
Oocytes ± SD [2, 5]: 6.0 ± 4.8
Total Embryos ± SD [2, 5]: 4.0 ± 2.7
Embryos ± SD (total number) ([2]; DHEA-treated cycles n = 8): 9.1 ± 7.3
Oocytes ± SD ([2]; DHEA-treated cycles n = 8): 10.4±7.3
Peak Estradiol ± SD ([2]; DHEA-treated cycles n = 8, 25 mg TID at least one month): 2310.3 ± 1108.1 pg/mL
% Aneuploid ± SD [2, 6]: 55.9 ± 37.8%
% Euploid ± SD [2, 6]: 44.1 ± 37.8%
n Aneuploid ± SD [2, 6]: 4.4 ± 3.0
n Euploid ± SD [2, 6]: 2.1 ± 1.4
Patients with euploid embryos (%) [2, 7]: 100%
Patients with euploid embryos (n/N) [2, 7]: 8/8
concentration at 5 months ([3]; 25 mg daily, December 2003, on DHEA): 278 ng/mL
concentration at 5 weeks ([3]; July 2003 after DHEA treatment start, 25 mg daily micronized): 2.96 ng/mL
female offspring [4, 8]: 3
male offspring [4, 8]: 12
female embryos by PGD [4, 9]: 26
male embryos by PGD [4, 9]: 27
female offspring, final gender distribution ([4]; singletons plus twins): 6
male offspring, final gender distribution ([4]; singletons plus twins): 15
female offspring [4, 10]: 5
male offspring [4, 10]: 11
